# Results taken from US20160022675A1, “PROCESSES FOR PREPARING TETRAHYDROISOQUINOLINES” (BRISTOL-MYERS SQUIBB COMPANY, priority 2013, published 2016).
# Like-named read-outs stand apart in the source and are kept apart here.
# Assays:
# DAT [1] = target: DAT (Canis lupus familiaris, UniProt B6EUL3); experiment: DAT occupancy, dog; assay type: in vivo; conditions: single binding site model, read-out: total plasma concentration producing 50% effect (EC50), DAT occupancy
# Procedure: (§1) The effects of Compound 1-(4S) in the mouse tail suspension model of depression and target site occupancy were assessed to compare occupancies associated with the behavioral response. The mouse tail suspension model is known the art. […] The lowest effective dose of Compound 1-(4S), 0.3 mg/kg, PO, decreased immobility by 77% relative to vehicle-treated controls. […] Administration of Compound 1-(4S) led to dose-dependent occupancy of SERT, NET, and DAT binding sites in the brain. At the lowest behaviorally-effective dose (0.3 mg/kg), occupancies were 86±1% of SERT, 76±3% of NET, and 28±3% of DAT. At 1 mg/kg, occupancies were 89±1%, 82±1% and 54±3% at SERT, NET, and DAT, respectively. Pharmacokinetics and pharmacodynamics (PD) in mouse, rat, and dog focused primarily on DAT occupancy since SERT and NET occupancies were saturated by drug for most, if not all, of the times studied. DAT occupancy increased as a function of increasing plasma exposure. The DAT occupancy to total plasma level could be fitted using a single binding site model and plasma level ED50 (the dose producing 50% effect) values could be calculated.
# Solution pH = assay type: physicochemical; conditions: at about 1 μg/mL concentration in water
# NET [2] = target: T1, NET (Rattus norvegicus, UniProt Q63380); experiment: NET occupancy, rat; assay type: in vivo; conditions: thermogenesis study, all 3 doses (1.0, 3.0, 10 mg/kg)
# T1 construct: from tissue; host or cells: rat, in vivo dosing
# Text: (§2) To better understand the margin between doses of Compound 1-(4S) that are effective in the mouse tail suspension models and those that lead to monoamine-related side effects, locomotor activity was examined to assess psychostimulant properties and stereotypy was examined to assess more severe DA-related side effects. Increased body temperature, another effect that has been attributed to DA pharmacology, was also studied. In the mouse, Compound 1-(4S) increased locomotor activity and stereotypy scores at doses of 3.0 mg/kg and 10 mg/kg, respectively. Thus, the margin between the Compound 1-(4S) effective dose in the mouse tail suspension and increased locomotor activity was 10-fold and the margin versus activity in stereotypy was 30-fold. The thermogenic effect of Compound 1-(4S) was studied in mice and rats by measuring changes in rectal temperature following administration of the compound. […] The onset of the thermogenesis was earlier as the dose was increased. The levels of SERT and NET occupancy were over 80% and appeared saturated across the doses tested. The DAT occupancy was dose-dependent, with 55±5.7% at 1.0 mg/kg, 74±6% at 3.0 mg/kg, and 83±0.8% at 10 mg/kg. […] The onset of the temperature increase was earlier at the highest dose of 10 mg/kg. […] The DAT occupancy was 37±8.3%, 55±5.2%, and 71±1.7% at 1.0, 3.0, and 10 mg/kg, respectively. […]
# DAT [3] = target: T2, DAT (Homo sapiens, UniProt Q01959); experiment: Competition binding, membranes from HEK cells overexpressing DAT; design: expressed in transfected cells; host or cells: HEK cells (membranes); conditions: radioligand at Kd concentration; HEK cell membranes
# Procedure: (§3) Competition binding experiments were performed to determine the in vitro binding potencies (IC50 values) of Compound 1-(4S) for SERT, DAT, and NET. Membranes prepared from human embryonic kidney (HEK) cells overexpressing each transporter were employed. Radioligands were used at their respective affinity constant (Kd) concentrations for each transporter to enable direct comparisons of the IC50 values between assays.
# cocaine-lever responding = conditions: rat, in vivo; for cocaine-lever responding: po
# Procedure: Compound 1-(4S) was evaluated in a cocaine discrimination assay in rats, a model used to address abuse potential. The cocaine discrimination assay is known the art Compound 1-(4S) was administered and the percentage of rats that responded by selecting the cocaine-associated lever was measured. […] Since the subjective effects of cocaine are evident 15 minutes after dosing, Compound 1-(4S) was tested at the earlier time point. […] In addition, the onset of this partial effect was slower than the onset of the subjective effects of cocaine in this model.
# NET [4] = target: NET (Homo sapiens, UniProt P23975); experiment: [3H]NE uptake into HEK293/hNET cells; assay type: cell-based; design: expressed in transfected cells; host or cells: HEK293; conditions: read-out: Norepinephrine reuptake IC50 ([3H]NE uptake)
# Text: (§4) Cell-based assays were used to determine the ability of Compound 1-(4S) to inhibit reuptake of 3H-labeled DA ([3H]DA), NE ([3H]NE), and 5-HT ([3H]5-HT).
# [5] = test system: mouse tail suspension model of depression; experiment: Mouse tail suspension model of depression; assay type: in vivo; conditions: PO
# Procedure: as §1
# SERT [6] = target: SERT (Homo sapiens, UniProt P31645); experiment: Competition binding, membranes from HEK cells overexpressing SERT; design: expressed in transfected cells; host or cells: HEK cells (membranes)
# Procedure: as §3
# rectal temperature = experiment: Thermogenic effect (rectal temperature), mouse; assay type: in vivo; conditions: 4 hours after doses of 1, 3, and 10 mg/kg
# Text: as §2
# stereotypy = experiment: Stereotypy, mouse; assay type: in vivo
# Text: as §2
# DAT [7] = target: T2, DAT; experiment: [3H]DA uptake into HEK293/hDAT cells; assay type: cell-based; design: expressed in transfected cells; host or cells: HEK293; conditions: read-out: Dopamine reuptake IC50 ([3H]DA uptake)
# Text: as §4
# [8] = pH-Solubility profile (aqueous); assay type: physicochemical; conditions: aqueous solution, aqueous buffer; solution pH 6.5 and above
# SERT [9] = target: T3, SERT (Rattus norvegicus, UniProt P31652); experiment: SERT occupancy, rat; assay type: in vivo; conditions: thermogenesis study, all 3 doses (1.0, 3.0, 10 mg/kg)
# T3 construct: from tissue; host or cells: rat, in vivo dosing
# Text: as §2
# DAT [10] = target: T4, DAT (Rattus norvegicus, UniProt P23977); experiment: DAT occupancy, rat; assay type: in vivo
# T4 construct: from tissue; host or cells: rat, in vivo dosing
# Procedure: as §1
# To better understand the margin between doses of Compound 1-(4S) that are effective in the mouse tail suspension models and those that lead to monoamine-related side effects, locomotor activity was examined to assess psychostimulant properties and stereotypy was examined to assess more severe DA-related side effects. Increased body temperature, another effect that has been attributed to DA pharmacology, was also studied. In the mouse, Compound 1-(4S) increased locomotor activity and stereotypy scores at doses of 3.0 mg/kg and 10 mg/kg, respectively. Thus, the margin between the Compound 1-(4S) effective dose in the mouse tail suspension and increased locomotor activity was 10-fold and the margin versus activity in stereotypy was 30-fold. The thermogenic effect of Compound 1-(4S) was studied in mice and rats by measuring changes in rectal temperature following administration of the compound. […] The onset of the thermogenesis was earlier as the dose was increased. The levels of SERT and NET occupancy were over 80% and appeared saturated across the doses tested. The DAT occupancy was dose-dependent, with 55±5.7% at 1.0 mg/kg, 74±6% at 3.0 mg/kg, and 83±0.8% at 10 mg/kg. […] The onset of the temperature increase was earlier at the highest dose of 10 mg/kg. […] The DAT occupancy was 37±8.3%, 55±5.2%, and 71±1.7% at 1.0, 3.0, and 10 mg/kg, respectively. Consistent with data obtained with mice, the thermogenic effect of Compound 1-(4S) is dose dependently related to DAT occupancy and at least 50% DAT occupancy is needed for this effect.
# T4 sequence (P23977 whole entry): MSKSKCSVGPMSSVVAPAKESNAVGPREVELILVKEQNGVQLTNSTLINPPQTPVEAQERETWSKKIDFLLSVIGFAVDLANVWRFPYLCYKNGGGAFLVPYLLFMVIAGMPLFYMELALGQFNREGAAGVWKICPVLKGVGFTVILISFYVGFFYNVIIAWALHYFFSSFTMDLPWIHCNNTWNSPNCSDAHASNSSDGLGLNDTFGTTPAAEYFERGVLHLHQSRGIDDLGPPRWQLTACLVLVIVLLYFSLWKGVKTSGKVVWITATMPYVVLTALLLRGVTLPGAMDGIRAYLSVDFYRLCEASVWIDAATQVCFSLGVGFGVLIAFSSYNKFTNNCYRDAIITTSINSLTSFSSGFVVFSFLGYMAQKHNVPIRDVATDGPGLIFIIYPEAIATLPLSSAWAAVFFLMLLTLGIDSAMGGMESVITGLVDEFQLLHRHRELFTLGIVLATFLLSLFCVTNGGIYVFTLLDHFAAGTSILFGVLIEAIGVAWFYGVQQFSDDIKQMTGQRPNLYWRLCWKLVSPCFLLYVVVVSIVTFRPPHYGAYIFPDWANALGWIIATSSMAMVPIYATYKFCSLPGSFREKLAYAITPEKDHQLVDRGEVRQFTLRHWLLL
# T2 sequence (Q01959 whole entry): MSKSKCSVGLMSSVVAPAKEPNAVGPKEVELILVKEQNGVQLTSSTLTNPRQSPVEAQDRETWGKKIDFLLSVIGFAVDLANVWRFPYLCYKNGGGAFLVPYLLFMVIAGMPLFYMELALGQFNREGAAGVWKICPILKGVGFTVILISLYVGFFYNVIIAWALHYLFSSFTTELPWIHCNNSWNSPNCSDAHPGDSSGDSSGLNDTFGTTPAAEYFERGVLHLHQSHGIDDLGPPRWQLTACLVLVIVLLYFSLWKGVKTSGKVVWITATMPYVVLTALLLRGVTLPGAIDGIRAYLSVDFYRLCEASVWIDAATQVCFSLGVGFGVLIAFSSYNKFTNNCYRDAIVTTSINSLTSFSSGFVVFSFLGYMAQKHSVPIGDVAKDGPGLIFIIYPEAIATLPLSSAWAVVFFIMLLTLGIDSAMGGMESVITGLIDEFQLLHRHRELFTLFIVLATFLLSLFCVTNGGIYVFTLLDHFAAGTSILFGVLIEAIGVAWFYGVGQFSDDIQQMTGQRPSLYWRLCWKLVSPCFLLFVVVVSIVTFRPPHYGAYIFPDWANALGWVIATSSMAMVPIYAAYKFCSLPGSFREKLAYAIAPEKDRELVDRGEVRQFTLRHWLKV
# Chain of NET (Homo sapiens, UniProt P23975) (P23975 whole entry): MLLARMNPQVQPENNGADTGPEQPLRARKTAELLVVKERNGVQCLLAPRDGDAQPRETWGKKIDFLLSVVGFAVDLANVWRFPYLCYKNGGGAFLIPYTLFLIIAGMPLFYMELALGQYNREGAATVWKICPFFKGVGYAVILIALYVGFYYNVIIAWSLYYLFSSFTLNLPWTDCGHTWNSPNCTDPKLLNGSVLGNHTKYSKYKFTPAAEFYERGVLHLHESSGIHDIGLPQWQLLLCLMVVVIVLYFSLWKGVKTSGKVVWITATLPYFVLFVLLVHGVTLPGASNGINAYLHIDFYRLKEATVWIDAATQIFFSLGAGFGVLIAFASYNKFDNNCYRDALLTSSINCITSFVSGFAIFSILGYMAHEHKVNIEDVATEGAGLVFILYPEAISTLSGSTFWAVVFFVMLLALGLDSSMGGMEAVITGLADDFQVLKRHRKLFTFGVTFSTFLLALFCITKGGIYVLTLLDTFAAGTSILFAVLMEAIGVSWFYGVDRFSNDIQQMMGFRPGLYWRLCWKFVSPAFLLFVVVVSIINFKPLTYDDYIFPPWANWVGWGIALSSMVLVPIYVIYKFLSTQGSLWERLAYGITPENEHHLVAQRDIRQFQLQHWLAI
# T3 sequence (P31652 whole entry): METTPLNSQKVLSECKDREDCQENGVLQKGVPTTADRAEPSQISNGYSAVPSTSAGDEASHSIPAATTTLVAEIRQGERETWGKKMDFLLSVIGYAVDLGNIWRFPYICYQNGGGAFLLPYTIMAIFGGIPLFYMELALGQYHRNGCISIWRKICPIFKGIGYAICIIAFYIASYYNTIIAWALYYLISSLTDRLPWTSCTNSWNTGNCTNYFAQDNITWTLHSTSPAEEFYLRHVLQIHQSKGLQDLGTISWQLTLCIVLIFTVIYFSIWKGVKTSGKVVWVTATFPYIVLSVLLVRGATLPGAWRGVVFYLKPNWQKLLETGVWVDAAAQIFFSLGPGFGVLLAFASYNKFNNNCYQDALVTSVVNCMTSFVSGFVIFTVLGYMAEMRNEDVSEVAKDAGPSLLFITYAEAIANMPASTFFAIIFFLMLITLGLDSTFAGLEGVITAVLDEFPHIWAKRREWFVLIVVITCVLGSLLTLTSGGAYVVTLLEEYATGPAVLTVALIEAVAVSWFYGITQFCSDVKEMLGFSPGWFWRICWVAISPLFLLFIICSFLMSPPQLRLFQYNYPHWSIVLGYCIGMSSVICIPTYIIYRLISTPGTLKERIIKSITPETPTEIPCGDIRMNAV
# Chain of SERT (Homo sapiens, UniProt P31645) (P31645 whole entry): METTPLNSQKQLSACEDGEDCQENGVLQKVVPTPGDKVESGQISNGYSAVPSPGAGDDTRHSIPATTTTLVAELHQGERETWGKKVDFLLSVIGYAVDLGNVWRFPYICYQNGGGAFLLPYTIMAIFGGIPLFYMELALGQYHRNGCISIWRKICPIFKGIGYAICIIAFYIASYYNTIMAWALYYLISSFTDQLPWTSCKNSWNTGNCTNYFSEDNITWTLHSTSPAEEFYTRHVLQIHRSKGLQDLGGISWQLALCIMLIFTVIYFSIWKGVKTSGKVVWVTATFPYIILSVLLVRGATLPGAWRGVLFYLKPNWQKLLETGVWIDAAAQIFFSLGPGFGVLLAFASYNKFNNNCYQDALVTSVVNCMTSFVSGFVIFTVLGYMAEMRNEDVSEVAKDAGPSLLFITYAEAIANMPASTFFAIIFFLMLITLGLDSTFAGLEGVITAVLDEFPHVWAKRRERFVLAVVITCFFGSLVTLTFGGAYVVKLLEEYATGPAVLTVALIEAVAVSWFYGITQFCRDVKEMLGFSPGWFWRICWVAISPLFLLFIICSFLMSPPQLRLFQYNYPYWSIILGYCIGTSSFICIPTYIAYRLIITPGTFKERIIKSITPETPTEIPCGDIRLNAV
# T1 sequence (Q63380 1-617): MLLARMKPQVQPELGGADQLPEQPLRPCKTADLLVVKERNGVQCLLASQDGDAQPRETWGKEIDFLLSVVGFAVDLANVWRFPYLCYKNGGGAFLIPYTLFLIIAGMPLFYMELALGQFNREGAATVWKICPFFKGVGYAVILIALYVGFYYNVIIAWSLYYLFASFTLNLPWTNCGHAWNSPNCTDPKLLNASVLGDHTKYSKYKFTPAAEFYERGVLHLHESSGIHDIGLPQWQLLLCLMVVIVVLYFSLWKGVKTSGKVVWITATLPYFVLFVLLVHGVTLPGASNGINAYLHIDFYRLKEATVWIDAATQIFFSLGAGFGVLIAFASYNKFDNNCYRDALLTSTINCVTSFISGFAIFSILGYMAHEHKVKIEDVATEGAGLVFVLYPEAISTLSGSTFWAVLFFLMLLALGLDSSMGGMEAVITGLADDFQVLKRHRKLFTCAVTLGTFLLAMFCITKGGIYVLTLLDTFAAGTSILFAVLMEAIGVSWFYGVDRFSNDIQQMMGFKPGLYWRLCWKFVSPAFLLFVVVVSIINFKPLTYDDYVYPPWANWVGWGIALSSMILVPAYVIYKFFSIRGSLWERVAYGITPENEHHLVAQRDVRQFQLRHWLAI
# Chain of DAT (Canis lupus familiaris, UniProt B6EUL3) (B6EUL3 1-617): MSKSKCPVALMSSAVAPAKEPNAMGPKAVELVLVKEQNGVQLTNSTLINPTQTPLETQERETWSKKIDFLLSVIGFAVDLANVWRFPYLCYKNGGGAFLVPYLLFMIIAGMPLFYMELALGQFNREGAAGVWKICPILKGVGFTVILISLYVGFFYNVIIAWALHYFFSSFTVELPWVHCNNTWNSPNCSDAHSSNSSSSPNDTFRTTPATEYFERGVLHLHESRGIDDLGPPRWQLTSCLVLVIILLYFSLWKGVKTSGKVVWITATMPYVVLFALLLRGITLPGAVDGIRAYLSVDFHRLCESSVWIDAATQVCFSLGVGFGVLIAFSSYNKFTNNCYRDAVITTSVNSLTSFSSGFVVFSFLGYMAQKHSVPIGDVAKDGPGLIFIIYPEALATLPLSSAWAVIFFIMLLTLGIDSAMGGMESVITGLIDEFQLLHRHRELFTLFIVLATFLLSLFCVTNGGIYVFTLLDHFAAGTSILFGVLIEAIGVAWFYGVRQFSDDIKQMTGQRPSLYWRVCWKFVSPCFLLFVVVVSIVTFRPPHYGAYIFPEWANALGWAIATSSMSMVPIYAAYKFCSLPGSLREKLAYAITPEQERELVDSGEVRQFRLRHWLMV
smiles,measurement,setting,value
"CN1Cc2cc(-c3ccc(N)nn3)ccc2[C@H](c2ccc3ccccc3c2)C1 [Compound 1-(4S), 6-[(4S)-1,2,3,4-tetrahydro-2-methyl-4-(2-naphthalenyl)-7-isoquinolinyl]-3-pyridazinamine]",EC50,DAT [1],103 nM
same,Solution pH,Solution pH,~7.0 at about 1 μg/mL concentration in water
same,NET occupancy,NET [2],nearly saturated
same,IC50,DAT [3],5.67 ± 0.36 nM
same,substitution for the cocaine stimulus,cocaine-lever responding,partially substituted for the cocaine stimulus
same,cocaine-lever responding,"cocaine-lever responding; 0.1 mg/kg, 60 min",less than 1%
same,cocaine-lever responding,"cocaine-lever responding; 0.3 mg/kg, 15 min",11%
same,cocaine-lever responding,"cocaine-lever responding; 0.3 mg/kg, 60 min",53%
same,cocaine-lever responding,"cocaine-lever responding; 1 mg/kg, 15 min",10%
same,cocaine-lever responding,"cocaine-lever responding; 3 mg/kg, 15 min",28%
same,IC50,NET [4],37.5 ± 2.5 nM
same,decrease in immobility relative to vehicle-treated controls,[5]; 0.3 mg/kg,77%
same,decrease in immobility,[5]; 1.0 mg/kg,91%
same,"lowest effective dose, tail suspension",[5],0.3 mg/kg
same,IC50,SERT [6],1.08 ± 0.09 nM
same,change in rectal temperature,rectal temperature,significant increases
same,dose that increased stereotypy scores,stereotypy,10 mg/kg
same,margin between effective dose in mouse tail suspension and activity in stereotypy,stereotypy,30 fold
same,IC50,DAT [7],31.5 ± 2.5 nM
same,solubility,[8],≤ 1 µg/mL
same,SERT occupancy,SERT [9],nearly saturated
same,EC50,"DAT [10]; single binding site model, read-out: total plasma concentration producing 50% effect (EC50), DAT occupancy",47 nM
same,receptor occupancy at 1 mg/kg,"DAT [10]; thermogenesis study, 1.0 mg/kg",37 ± 8.3%
same,receptor occupancy at 3 mg/kg,"DAT [10]; thermogenesis study, 3.0 mg/kg",55 ± 5.2%
same,receptor occupancy at 10 mg/kg,"DAT [10]; thermogenesis study, 10 mg/kg",71 ± 1.7%
